Results on 2 compounds are retold here after patent publication US20260000079A1, “COMPOSITIONS AND METHODS FOR MODULATING IMMUNITY IN PLANTS” (BOYCE THOMPSON INSTITUTE FOR PLANT RESEARCH, INC., priority 2019, published 2026).

For data set [1], the system named is MAPK, jasmonic acid and salicylic acid signaling pathways. As to conditions: Manosalva, et al. (2015); cited from earlier work.
Data set [2] deals with defense-response genes in Arabidopsis leaves. The data set can be described thus: qRT-PCR of defense-response genes in Arabidopsis leaves after root treatment. It counts as in vivo, Arabidopsis thaliana. As to conditions: leaves 24 hours after root treatment with 1 μM. As to the method: FIG. 4A provides a schematic of the experimental designs for assessing activation of defense pathways and resistance to nematodes and bacteria. […] Bacterial growth was assayed 3 days post inoculation. Data are averages±s.d. (n=17). […] Arabidopsis seedlings were treated with buffer or the indicated concentrations of ascr #18 for 48 hours before inoculation with approximately 300 freshly hatched M. incognita J2 larvae. The numbers of root galls of infected plants were counted 6 weeks post inoculation. Data are averages±s.d. (n≥15). […] Arabidopsis seedlings were treated with the indicated concentrations of ascr #18 for 48 hours before transfer into 12-well plates containing Pluronic® F-127 gel with ˜200 freshly hatched M. incognita J2 larvae. Larvae touching root tips (FIG. 4D) or the whole area of roots (FIG. 4E) were counted at 6 hours post seedling transfer. Data are average±s.d. (n=12). […] Transcript levels were determined by qRT-PCR and plotted as relative fold-change compared to mock treated plants. Data are averages±s.d (n≥6). *P≤0.05; **P≤0.005; ***P≤0.0005; two-tailed t-test.
For each replicate, total RNA from Arabidopsis leaves were isolated from a pool of one leaf from each of three plants. For the seedling RNA analyses, Arabidopsis roots were collected from 30-40 seedlings for each replicates. Total RNA was isolated using Qiagen RNeasy® Plant Mini Kit (Qiagen) according to the manufacturer's instructions. DNAse treatment was done using DNA-Free™ Kit (Ambion) following the manufacturer's instructions. […]
For quantitative real-time PCR (qRT-PCR), transcripts were amplified using SYBR® Premix Ex-Taq™ (Takara) from 2.5 μL of 5×-diluted cDNA in a total 20 μL reaction using 0.1 μL of 100 μM gene-specific primers. […] The relative fold change was calculated according to the 2-ΔΔCt method (Manosalva, et al. (2015) Nat. Commun. 6:7795; Floss, et al. (2013) Proc. Natl. Acad. Sci. 110: E5025-34). […]
Next, it was determined whether differences in activation of defense signaling in wildtype and acx1acx5 plants underlie the observed differences in resistance to nematodes. […]
(In general: In qPCR the cycle at which signal appears reflects the starting amount.)

Another data set concerns tomato root exudates. Kind of data set: LC-MS of root exudates and growth media of ascr #18-treated tomato seedlings. It is filed as in vivo, Solanum lycopersicum. As to the method: Data are average±SEM (n=6), n.d.=not detected. […] Exudates from approximately 40 seedlings were collected in distilled water and pooled. Abundances of ascarosides are shown as the peak area, as measured by LC-MS. Data are average±SEM (n=3); n.d.=not detected. FIGS. 5C and 5D show the relative abundances of ascarosides in root exudates of eight-day old tomato seedlings treated with 10 nM (FIG. 5C) or 1000 nM (FIG. 5D) ascr #18 for 6 hours. Exudates from approximately 10 seedlings were collected in distilled water and pooled. Abundances of ascarosides are shown as the peak area, as measured by LC-MS. Data are average±SEM (n=3); n.d.=not detected. FIG. 5E provides the relative abundances of ascr #10, ascr #1, and ascr #9 in the growth media of eight-day old tomato seedlings supplemented with 1 μM ascr #18. Ten-gram media samples were collected at different time points over a 48 hour period for metabolome extraction. Abundances of ascarosides are shown as the peak area, as measured by LC-MS.
To test this possibility, root-secreted metabolites of ascr #18- and mock-treated Arabidopsis were compared (FIG. 5A). For this experiment, 10-day old Arabidopsis seedlings were treated in growth media supplemented with ascr #18 for 6 hours prior to collection of exudates from roots submerged in water. […] Analogous results were obtained in experiments with tomato roots (FIG. 5C, 5D).

Regarding `CC1O[C@@H](O[C@@H](C)CCCCCCCCC(=O)O)C(O)C[C@H]1O` (stereo in doubt) [ascr #18, (10R)-(3′R,5′R-dihydroxy-6′S-methyl-(2H)-tetrahydropyran-2-yloxy)-undecanoic acid], the “activation of defense signaling pathways in monocots and dicots” value in data set [1] was “activation of conserved defense signaling pathways”. Moreover, in data set [2] (acx1acx5 vs wildtype), the “induction of MAPK-related FRK1” value is “slightly weaker in the mutant”. Besides, in data set [2] (wildtype vs acx1acx5), the “induction of jasmonic acid signaling genes (PDF1.2, AOS, LOX2)” value is listed as “to similar extents” and the “induction of salicylic acid signaling genes (PR-1, PR-4)” value is recorded as “to similar extents”.

Turning to `C[C@H](CCC(=O)O)O[C@@H]1O[C@@H](C)[C@H](O)C[C@H]1O` [ascr #9], in the data set on tomato root exudates, the “relative abundance among root-excreted ascr #18 metabolites” value is recorded as “most abundant”.
